Values after ≈ are worked out from the molar mass of the structure shown. Read-outs that look alike come from different tables or passages of the source.
Columns and labels:
[1] = test system: Burkholderia cepacia complex; assay: Checkerboard FIC assay, BisEDT with CF agents (Example 10); format: cell-based, Burkholderia spp.; conditions: B. cenocepacia isolate 0548; agent alone, as observed during FIC testing
P. aeruginosa [2] = conditions: P. aeruginosa isolate 103, CLSI QC range in parenthesis, cited from earlier work
Pseudomonas aeruginosa [3] = conditions: P. aeruginosa ATCC 27853, QC organism; cited from earlier work
P. aeruginosa [4] = assay: Broth microdilution MIC (Example 10)
[5] = test system: Burkholderia cepacia complex; assay: Broth microdilution MIC (Example 10); conditions: initial MIC testing
Escherichia coli = assay: Broth microdilution MIC (Example 12)
Klebsiella pneumoniae = assay: Broth microdilution MIC (Example 12)
Pseudomonas aeruginosa [6] = assay: Broth microdilution MIC (Example 12)
Acinetobacter baumannii = assay: Broth microdilution MIC (Example 12)

Compound: NCC[C@H](O)C(=O)N[C@@H]1C[C@H](N)[C@@H](O[C@H]2O[C@H](CN)[C@@H](O)[C@H](O)[C@H]2O)[C@H](O)[C@H]1O[C@H]1O[C@H](CO)[C@@H](O)[C@H](N)[C@H]1O [AMK]
- MIC, CLSI QC range (P. aeruginosa [2]; Table 24): (1-4) μg/mL
- MIC, CLSI QC range (P. aeruginosa [2]; Table 26): (1-4) μg/mL
- MIC, QC range (Pseudomonas aeruginosa [3]): (1-4) μg/mL
- MIC (P. aeruginosa [4]; P. aeruginosa isolate 103 (ATCC 25922), QC strain, initial MIC testing): 2 µg/mL (≈ 3.42 µM)
- MIC (P. aeruginosa [4]; P. aeruginosa isolate 103 (ATCC 25922), during FIC testing, each agent tested alone for QC, one replicate): 4 µg/mL
- MIC (P. aeruginosa [4]; P. aeruginosa isolate 1497 (TOB-R, AMK-R, CIP-I, AZT-R, COL-R), initial MIC testing): 64 µg/mL (≈ 109 µM)
- MIC (P. aeruginosa [4]; P. aeruginosa isolate 1530 (TOB-R, AMK-R, CIP-R), initial MIC testing): 64 µg/mL (≈ 109 µM)
- MIC (P. aeruginosa [4]; P. aeruginosa isolate 1553 (TOB-R, AMK-R, CIP-R), initial MIC testing): 64 µg/mL (≈ 109 µM)
- MIC (P. aeruginosa [4]; P. aeruginosa isolate 6322 (MEM-R, TOB-R, AMK-R, CIP-R, AZT-R), initial MIC testing): 64 µg/mL (≈ 109 µM)
- MIC (P. aeruginosa [4]; P. aeruginosa isolate 6977 (MEM-I, TOB-R, CIP-R, AZT-I), initial MIC testing): 16 µg/mL (≈ 27.3 µM)
- MIC (P. aeruginosa [4]; P. aeruginosa isolate 7745 (MEM-R, CIP-R, AZT-R), initial MIC testing): 4 µg/mL (≈ 6.83 µM)
- MIC (P. aeruginosa [4]; P. aeruginosa isolate 7754 (MEM-R, TOB-R, CIP-R, AZT-I), initial MIC testing): 8 µg/mL (≈ 13.7 µM)
- MIC (P. aeruginosa [4]; P. aeruginosa isolate 7762 (MEM-I, CIP-I), initial MIC testing): 8 µg/mL (≈ 13.7 µM)
- MIC (P. aeruginosa [4]; P. aeruginosa isolate 7871 (MEM-R, AZT-I), initial MIC testing): 2 µg/mL (≈ 3.42 µM)
- MIC (P. aeruginosa [4]; P. aeruginosa isolate 7874, initial MIC testing): 2 µg/mL (≈ 3.42 µM)
- MIC (P. aeruginosa [4]; P. aeruginosa isolate 7886 (MEM-R, CIP-R, AZT-R), initial MIC testing): 8 µg/mL (≈ 13.7 µM)
- MIC (P. aeruginosa [4]; P. aeruginosa isolate 8797 (MEM-R, TOB-R, AMK-R, CIP-R, AZT-R, COL-R), initial MIC testing): >256 µg/mL
- MIC (P. aeruginosa [4]; P. aeruginosa isolate 9108 (CIP-R, AZT-I), initial MIC testing): 4 µg/mL (≈ 6.83 µM)
- MIC ([5]; B. cenocepacia isolate 0548 (CIP-R)): 256 µg/mL (≈ 437 µM)
- MIC ([5]; B. cenocepacia isolate 1631): 256 µg/mL (≈ 437 µM)
- MIC ([5]; B. cenocepacia isolate 1783): 256 µg/mL (≈ 437 µM)
- MIC ([5]; B. cenocepacia isolate 8555): 256 µg/mL (≈ 437 µM)
- MIC ([5]; B. cepacia isolate 0546): 64 µg/mL (≈ 109 µM)
- MIC ([5]; B. cepacia isolate 1793): 64 µg/mL (≈ 109 µM)
- MIC ([5]; B. cepacia isolate 9040): 8 µg/mL (≈ 13.7 µM)
- MIC ([5]; B. multivorans isolate 5665 (CIP-I)): 256 µg/mL (≈ 437 µM)
- MIC (Escherichia coli; E. coli ATCC 25922, QC organism): 1 µg/mL (≈ 1.71 µM)
- MIC (Escherichia coli; E. coli ATCC 35218, QC organism): 1 µg/mL (≈ 1.71 µM)
- MIC (Escherichia coli; Escherichia coli ATCC 35218, ESBL): 1 µg/mL (≈ 1.71 µM)
- MIC (Escherichia coli; Escherichia coli ATCC BAA-2471, NDM): 64 µg/mL (≈ 109 µM)
- MIC (Escherichia coli; Escherichia coli CDC 114, ESBL/KPC): 1 µg/mL (≈ 1.71 µM)
- MIC (Escherichia coli; Escherichia coli CDC 118, ESBL/NDM): >64 µg/mL
- MIC (Escherichia coli; Escherichia coli CDC 435, NDM): >64 µg/mL
- MIC (Escherichia coli; Escherichia coli CDC 451, KPC): 4 µg/mL (≈ 6.83 µM)
- MIC (Escherichia coli; Escherichia coli CDC 503, ESBL/NDM): >64 µg/mL
- MIC (Escherichia coli; Escherichia coli MMX 5745, KPC): 0.5 µg/mL (≈ 0.854 µM)
- MIC (Escherichia coli; Escherichia coli MMX 5755, ESBL): 16 µg/mL (≈ 27.3 µM)
- MIC (Escherichia coli; Escherichia coli MMX 5756, ESBL): 64 µg/mL (≈ 109 µM)
- MIC (Escherichia coli; Escherichia coli MMX 5758, ESBL): 1 µg/mL (≈ 1.71 µM)
- MIC (Klebsiella pneumoniae; K. pneumoniae ATCC BAA-1705, QC organism): 16 µg/mL (≈ 27.3 µM)
- MIC (Klebsiella pneumoniae; Klebsiella pneumoniae ATCC BAA-1705, ESBL/KPC): 16 µg/mL (≈ 27.3 µM)
- MIC (Klebsiella pneumoniae; Klebsiella pneumoniae CDC 112, KPC): 16 µg/mL (≈ 27.3 µM)
- MIC (Klebsiella pneumoniae; Klebsiella pneumoniae CDC 113, ESBL/KPC): 16 µg/mL (≈ 27.3 µM)
- MIC (Klebsiella pneumoniae; Klebsiella pneumoniae CDC 115, ESBL/KPC): 0.5 µg/mL (≈ 0.854 µM)
- MIC (Klebsiella pneumoniae; Klebsiella pneumoniae CDC 120, ESBL/KPC): 16 µg/mL (≈ 27.3 µM)
- MIC (Klebsiella pneumoniae; Klebsiella pneumoniae CDC 126, ESBL/KPC): 2 µg/mL (≈ 3.42 µM)
- MIC (Klebsiella pneumoniae; Klebsiella pneumoniae CDC 135, ESBL/VIM): 16 µg/mL (≈ 27.3 µM)
- MIC (Klebsiella pneumoniae; Klebsiella pneumoniae CDC 138, ESBL/NDM): >64 µg/mL
- MIC (Klebsiella pneumoniae; Klebsiella pneumoniae CDC 158, ESBL/NDM/OXA): 2 µg/mL (≈ 3.42 µM)
- MIC (Klebsiella pneumoniae; Klebsiella pneumoniae MMX 9029, ESBL): 0.5 µg/mL (≈ 0.854 µM)
- MIC (Pseudomonas aeruginosa [6]; P. aeruginosa ATCC 27853, QC organism): 2 µg/mL (≈ 3.42 µM)
- MIC (Pseudomonas aeruginosa [6]; Pseudomonas aeruginosa CDC 230, VIM/OXA): >64 µg/mL
- MIC (Pseudomonas aeruginosa [6]; Pseudomonas aeruginosa CDC 231, KPC/OXA): 8 µg/mL (≈ 13.7 µM)
- MIC (Pseudomonas aeruginosa [6]; Pseudomonas aeruginosa CDC 246, NDM/OXA): >64 µg/mL
- MIC (Pseudomonas aeruginosa [6]; Pseudomonas aeruginosa CDC 250, NDM/OXA): >64 µg/mL
- MIC (Pseudomonas aeruginosa [6]; Pseudomonas aeruginosa CDC 356, KPC): 2 µg/mL (≈ 3.42 µM)
- MIC (Pseudomonas aeruginosa [6]; Pseudomonas aeruginosa CDC 439, IMP): >64 µg/mL
- MIC (Pseudomonas aeruginosa [6]; Pseudomonas aeruginosa CDC 444, VIM): >64 µg/mL
- MIC (Pseudomonas aeruginosa [6]; Pseudomonas aeruginosa CDC 457, VIM): 2 µg/mL (≈ 3.42 µM)
- MIC (Pseudomonas aeruginosa [6]; Pseudomonas aeruginosa CDC 516, KPC/AmpC): 2 µg/mL (≈ 3.42 µM)
- MIC (Pseudomonas aeruginosa [6]; Pseudomonas aeruginosa CDC 518, KPC/AmpC): 16 µg/mL (≈ 27.3 µM)
- MIC (Acinetobacter baumannii; Acinetobacter baumannii CDC 273, ESBL/OXA): >64 µg/mL
- MIC (Acinetobacter baumannii; Acinetobacter baumannii CDC 274, ESBL/OXA): 16 µg/mL (≈ 27.3 µM)
- MIC (Acinetobacter baumannii; Acinetobacter baumannii CDC 275, ESBL/OXA): >64 µg/mL
- MIC (Acinetobacter baumannii; Acinetobacter baumannii CDC 277, ESBL/OXA): 16 µg/mL (≈ 27.3 µM)
- MIC (Acinetobacter baumannii; Acinetobacter baumannii CDC 307, OXA): >64 µg/mL
- MIC (Acinetobacter baumannii; Acinetobacter baumannii CDC 308, ESBL/OXA): >64 µg/mL
- MIC (Acinetobacter baumannii; Acinetobacter baumannii CDC 311, OXA): >64 µg/mL
- MIC (Acinetobacter baumannii; Acinetobacter baumannii CDC 312, OXA): 1 µg/mL (≈ 1.71 µM)
- MIC (Acinetobacter baumannii; Acinetobacter baumannii CDC 313, ESBL/OXA): 4 µg/mL (≈ 6.83 µM)
- MIC (Acinetobacter baumannii; Acinetobacter baumannii NCTC 13304, OXA): 0.5 µg/mL (≈ 0.854 µM)
